Results filed as inconclusive are left out. Calls of active or inactive are those of the source.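 How the source made its calls: active means fitted curve reaches -35% activity change below twice the top valid dose, with every replicate test called active; inconclusive means replicate tests disagree on the call; inactive means every replicate test called inactive.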

For the first test, the system named is HEK293T viability, CellTiter-Glo ATP luminescence, 48 h. Description: cytotoxicity in untransfected HEK293T cells – cell-based, CellTiter-Glo luminescence, dry powder, counter-screen for EBV LMP1 inhibitor project, dose response (AID 624372).
Settings: not given
For the compound `C=C1C[C@]23C[C@@]1(O)CC[C@@H]2c1cccc(C)c1[C@@H]3C(=O)O`, the AC35 was 7.6 µM.
`C/C=C/C/C=C/CCC(=O)[C@H]1O[C@H]1C(N)=O`: the AC35 is 18.3 µM.
Consider `C/C(=N\NC(=S)N1CCN(c2ccccn2)CC1)c1ccccn1`, for which the AC35 is 11.3 µM.
For `C/C(=N\NC(=S)Nc1cccc(Cl)c1)c1ccccn1`, the AC35 is 16.2 µM.
Regarding `C/C(=N\NC(=S)N1CCCCC1)c1ccccn1`, the AC35 is 10.9 µM.
As for `C/C(=N\NC(=S)N1CC2CCC(CC2)C1)c1cccc(C)n1`, the AC35 is 2.02 µM.
With `COc1ccc(NC(=O)c2ccc(OC(C)C(=O)O)cc2)cc1Cl` (centres undefined), the AC35 was 37.6 µM.
Consider `Cc1ccnc(NC(=O)c2ccc(C(=O)c3ccccc3)cc2)c1`, for which the AC35 was 72 µM.
For the compound `S=C(NCc1ccccn1)N/N=C/c1ccccn1`, the AC35 was 29.6 µM.
For the compound `C/C(=N\NC(=S)N1CCCCC1)c1cccc(C)n1`, the AC35 is 0.785 µM.
For the compound `O=c1[nH]c(=O)n([C@H]2C[C@H](O)[C@@H](CO)O2)cc1C(F)(F)F`, the AC35 is 27.4 µM.
With `CCC(Sc1nnc2c3ccccc3n(Cc3ccc(Br)cc3)c2n1)C(=O)NCCCN1CCOCC1` (centres undefined), the AC35 is 21.2 µM.
As for `C[C@H](CO)N1C[C@H](C)[C@H](CN(C)C(=O)Nc2ccc(C(F)(F)F)cc2)OCCCC[C@H](C)Oc2ccc(NC(=O)Nc3ccc(F)cc3)cc2C1=O`, the AC35 is 48.2 µM.
Regarding `C/C(=N\NC(=S)N1CCCC1)c1ccccn1`, the AC35 is 11 µM.
Same read-out and setting: the same measure for `Fc1ccc2c(c1)c1nnc(SCCN3CCOCC3)nc1n2Cc1ccccc1`: 16.9 µM.
On the same count and under the same terms, the same measure for `COCCCNC(=O)C(C)Sc1nnc2c3cc(C)ccc3n(Cc3ccccc3F)c2n1` (centres undefined): 56 µM.
Turning to `Cc1c(NC(=O)c2cccc(NC(=O)COc3ccccc3C#N)c2)c(=O)n(-c2ccccc2)n1C`, the AC35 is 24.4 µM.
In the case of `C[C@@H]1CN([C@@H](C)CO)C(=O)c2cc(NC(=O)Nc3ccc(C(F)(F)F)cc3)ccc2O[C@@H](C)CCCCO[C@@H]1CN(C)CC1CCCCC1`, the AC35 is 62.9 µM.
On to `C/C(=N\NC(=S)N1CC2CCC(CC2)C1)c1cnccn1`, for which the AC35 is 7.95 µM.

Tested on in the next test: not listed separately
The description is as above. The note with it: HEK293T viability, CellTiter-Glo ATP luminescence, 48 h; at 10 µM (top of the series).
`C/C(=N\NC(=S)N1CC2CCC(CC2)C1)c1ccncn1`: the activity change, negative = cytotoxicity is 18.8% (inactive).

The test is the same for the next values; noted with them: HEK293T viability, CellTiter-Glo ATP luminescence, 48 h; at 15 µM (top of the series).
For the compound `C=C1C[C@]23C[C@@]1(O)CC[C@H]2[C@@]12C=C[C@H](O)[C@@](C)(C(=O)O1)[C@H]2[C@@H]3C(=O)O`, the activity change, negative = cytotoxicity is 15.6% (inactive).

Staying with this test, now noted: HEK293T viability, CellTiter-Glo ATP luminescence, 48 h; at 19.5 µM (top of the series).
As for `S=C(N/N=C(\c1ccccc1)c1ccccn1)N(Cc1ccccn1)Cc1ccccn1`, the activity change, negative = cytotoxicity is 8.82% (inactive).
On to `CSC(=S)N/N=C(\C)c1cccc(C)n1`, for which the activity change, negative = cytotoxicity was 17.8% (inactive).
On the same count and under the same terms, the same measure for `C/C(=N\NC(=S)Nc1cccc(C)c1)c1ccccn1`: -10.2% (inactive); for `COc1ccccc1NC(=S)N/N=C(\C)c1ccccn1`: 3.97% (inactive).

Still in this test, the particulars now being: HEK293T viability, CellTiter-Glo ATP luminescence, 48 h; at 26 µM (top of the series).
Take `O=C(CCc1ccccc1)NC(c1cccs1)c1cc(Cl)c2cccnc2c1O` (centres undefined): the activity change, negative = cytotoxicity is 6.13% (inactive).
For the compound `O=C(Nc1cc(C(F)(F)F)cc(C(F)(F)F)c1)Nc1cnn(-c2ccc([N+](=O)[O-])cc2)c1C(F)(F)F`, the activity change, negative = cytotoxicity is 5.06% (inactive).
Take `COc1ccc2nc(Nc3nc(C)c(CCC(C)C)c(=O)[nH]3)nc(C)c2c1`: the activity change, negative = cytotoxicity was 4.99% (inactive).
As for `C=CCN1Cc2ccccc2[C@@H]2OC(c3ccc(OCCCO)cc3)=N[C@]2(CCC(=O)OC(C)(C)C)C1=O`, the activity change, negative = cytotoxicity was 6.61% (inactive).
The same measure, in the same setting: the same measure for `COc1ccc(-c2csc3ncnc(NCCN4CCOCC4)c23)cc1`: 7.09% (inactive).
For the compound `CCN1CCN(C(c2cccnc2)c2cc(Cl)c3cccnc3c2O)CC1` (centres undefined), the activity change, negative = cytotoxicity was 14% (inactive).
Regarding `C[C@@H]1CCCCO[C@@H](CN(C)Cc2ccccc2)[C@H](C)CN([C@H](C)CO)C(=O)c2cc(NC(=O)Nc3ccc4c(c3)OCO4)ccc2O1`, the activity change, negative = cytotoxicity was 1.15% (inactive).
In the case of `COc1ccc(-c2cc3nc4n(c(=O)c3s2)CCC4)cc1`, the activity change, negative = cytotoxicity is 3.13% (inactive).
On to `COc1cccc(/C=N/Nc2ncnc3c2ncn3Cc2ccccc2)c1O`, for which the activity change, negative = cytotoxicity was 15.7% (inactive).
`CNC[C@@H]1Oc2ccc(NS(=O)(=O)c3cn(C)cn3)cc2CC(=O)N([C@H](C)CO)C[C@@H]1C`: the activity change, negative = cytotoxicity was -4.73% (inactive).
Turning to `C[C@@H]1CCCCO[C@H](CN(C)C(=O)NC2CCCCC2)[C@H](C)CN([C@@H](C)CO)C(=O)c2cc(NC(=O)C3CCCCC3)ccc2O1`, the activity change, negative = cytotoxicity is 3.97% (inactive).
As for `COc1ccc(C(=O)Nc2ccc3[nH]ccc3c2)cc1`, the activity change, negative = cytotoxicity is 12.8% (inactive).
For the compound `CC1CN(C(=O)CSc2nnc3c4ccccc4n(Cc4cccc(Cl)c4)c3n2)CCN1C(=O)c1ccccc1F` (centres undefined), the activity change, negative = cytotoxicity is 19.4% (inactive).
Take `C[C@@H]1CCCCO[C@H](CN(C)C(=O)CCC(F)(F)F)[C@H](C)CN([C@@H](C)CO)C(=O)c2cc(NC(=O)CCC(F)(F)F)ccc2O1`: the activity change, negative = cytotoxicity was -7.41% (inactive).
Turning to `COc1ccccc1[C@]1(C)ON(c2ccccc2C(F)(F)F)C1=O`, the activity change, negative = cytotoxicity was 21.8% (inactive).
The same measure, in the same setting: the same measure for `CCn1c2ccccc2c2cc(/C=N/n3cnnc3)ccc21`: 12.2% (inactive); for `Oc1cccc(C(Nc2nccs2)c2ccc3cccnc3c2O)c1` (centres undefined): 4.52% (inactive).
On the same count and under the same terms, the same measure for `O=C1/C(=C/c2ccncc2)SC(=S)N1Cc1ccccc1`: 7.62% (inactive).
Turning to `C[C@H](CO)N1C[C@H](C)[C@@H](CN(C)CC2CC2)OCCCC[C@H](C)Oc2ccc(NC(=O)Nc3cccc4ccccc34)cc2C1=O`, the activity change, negative = cytotoxicity is 33.4% (inactive).
With `C[C@@H]1CN([C@@H](C)CO)C(=O)c2cc(NC(=O)Nc3ccc(C(F)(F)F)cc3)ccc2O[C@@H](C)CCCCO[C@H]1CN(C)Cc1ccc(C(F)(F)F)cc1`, the activity change, negative = cytotoxicity was -3.84% (inactive).
On to `CSc1nc(-c2ccc(C)cc2)nc(C(Cl)Cl)n1`, for which the activity change, negative = cytotoxicity was 1.77% (inactive).
On to `CCc1ccc(/C=C/C(=O)C2C(=O)c3ccccc3C2=O)cc1`, for which the activity change, negative = cytotoxicity was 1.92% (inactive).
Still for that read-out and setting: the same measure for `O=C(CSc1nnc2c3ccccc3n(Cc3ccccc3)c2n1)NCc1ccco1`: -2.78% (inactive); for `CCc1ccc(/C=C2\SC(=S)N(CCCC(=O)Nc3ccccn3)C2=O)cc1`: 1.67% (inactive); for `c1ccc(Cn2c3ccccc3c3nnc(SCCN4CCCCC4)nc32)cc1`: -15% (inactive).
The same measure, in the same setting: the same measure for `C[C@@H]1CCCCO[C@H](CN(C)CC2CCCCC2)[C@H](C)CN([C@@H](C)CO)C(=O)c2cc(NC(=O)NC3CCCCC3)ccc2O1`: 4.75% (inactive); for `Cc1ccc(S(=O)(=O)Nc2ccc3c(c2)C(=O)N([C@@H](C)CO)C[C@H](C)[C@@H](CN(C)C(=O)CCC(F)(F)F)OCCCC[C@H](C)O3)cc1`: 0.533% (inactive).
With `Cc1ccc(S(=O)(=O)NC(CC(C)C)C(=O)NCC(c2ccco2)N2CCCCC2)cc1` (centres undefined), the activity change, negative = cytotoxicity was 2.47% (inactive).
As to `Cc1cc(NC(=O)c2ccc3c(c2)OCCO3)no1`, the activity change, negative = cytotoxicity was 6.92% (inactive).
As to `C[C@@H]1CCCCO[C@H](CN(C)C(=O)c2ccccc2)[C@H](C)CN([C@@H](C)CO)C(=O)c2cc(NC(=O)Nc3ccc(F)cc3)ccc2O1`, the activity change, negative = cytotoxicity was 5.32% (inactive).
Consider `Cc1ccc(NC(=O)C2CCN(S(=O)(=O)c3ccc4c(c3)NC(=O)C(C)S4)CC2)cc1Cl` (centres undefined), for which the activity change, negative = cytotoxicity was 44.9% (inactive).
Still for that read-out and setting: the same measure for `C[C@@H]1CN([C@@H](C)CO)C(=O)c2cc(NC(=O)Nc3ccc4c(c3)OCO4)ccc2O[C@H]1CN(C)CC1CCCCC1`: -4.73% (inactive).
In the case of `CC1=C(C(=O)OCc2ccc3c(c2)OCO3)C(c2ccc(F)cc2)NC(=O)N1` (centres undefined), the activity change, negative = cytotoxicity is 1.04% (inactive).
As for `CC(=O)Nc1nc(C)c(-c2csc(Nc3ccc(O)cc3)n2)s1`, the activity change, negative = cytotoxicity is 2.53% (inactive).
Regarding `C[C@@H]1CCCCO[C@H](CN(C)S(=O)(=O)c2ccccc2)[C@@H](C)CN([C@@H](C)CO)C(=O)c2cc(N(C)C)ccc2O1`, the activity change, negative = cytotoxicity is 16.8% (inactive).
For `CC12CCC3C(CC=C4CC(O)CCC43CO)C1CCC2OC(=O)c1ccccc1` (centres undefined), the activity change, negative = cytotoxicity was -2.56% (inactive).
Take `O=c1[nH]c(Nc2nc3ccccc3o2)nc2c1CCCC2`: the activity change, negative = cytotoxicity is -4.82% (inactive).
As for `c1ccc(-c2cn3c4c(sc3n2)CCCC4)cc1`, the activity change, negative = cytotoxicity was 3.96% (inactive).
`COc1ccc2[nH]c(C(=O)N/N=C/c3ccc(O)cc3O)cc2c1`: the activity change, negative = cytotoxicity is 3.87% (inactive).
